Test results: patent US20230013824A1, “COMPOSITIONS FOR THE TREATMENT OF HYPERKERATOSIS DISORDERS” (Azura Ophthalmics Ltd., priority 2016, published 2023)

Assays:
HaCaT keratinocyte cells [1] = assay: BrdU ELISA assay of turnover rate (DNA replication); type: cell-based, human; settings: 48 hr incubation
Experimental: Turnover rate was measured by BrdU. […] Staurosporine served as positive control. Mean±SEM; n=3. *p<0.05 for reduction from untreated control.
HaCaT cells were incubated without or with the indicated concentrations of selenium cysteine for 48 hr. Turnover rate was measured by BrdU. […] Mean±SEM; n=3. *p<0.05 for reduction from untreated control.
To further investigate the impact of selenium methionine on the cells, the DNA replication rate of the cells was monitored by the BrdU assay. […] The assay was carried out in triplicate.
The BrdU ELISA assay was performed according to kit manufacturer instructions. Briefly, during the final 16 hours of culture, BrdU was added to each well. The cells were fixed, permeabilized, and DNA denatured by the addition of buffers. BrdU monoclonal antibody was pipetted into the wells and allowed to bind for one hour. Colorimetric evaluation of the turnover rate was recorded by ELISA reader. The BrdU assay captures a 16 hr window, which gives a wide view on the proliferation rate of the cells.
To further investigate the impact of selenium cysteine on the cells, the DNA replication rate of the cells was monitored by a BrdU incorporation assay. The purpose was to determine the ability of selenium cysteine at selected concentrations and times to reduce HaCaT keratinocytes cells turnover rate. The assay was carried out in triplicates. The positive control was stautosporine (100 nM). The cells were seeded in 6- or 96-well plates in complete growth medium at 37° C. with 5% CO2 under humidified atmosphere. The cells were incubated with or without selenium cysteine for the selected time points and concentrations determined in Example 6. BrdU incorporation was performed at the selected concentration and a 48 hr time point was chosen for the BrdU assay.

HaCaT cells = assay: MTT cell viability assay, dose response and time course; type: cell-based, human; settings: for reduction of keratinocyte turnover or proliferation rate as determined by MTT cell viability tests: 72 hours
Experimental: Cell viability was measured by MTT assay.
Untreated cells were used as negative controls. […] A proper blank control was subtracted from the measurements.
The assay was carried out in triplicate. Untreated cells were used as negative controls.

Human stratum corneum = assay: Thiol degradation assay ex vivo in human skin tissue; settings: 2 hr
Experimental: Then, the mixtures were analyzed for free thiol moieties concentration.
The skin was cleaned, washed with PBS, and then the epidermis was peeled. The epidermis was incubated with 100 mL of 0.005% trypsin (in PBS) at 37° C. overnight. The stratum corneum was washed with HPLC grade water and transferred to a clean Eppendorf tube. The water was evaporated by SpeedVac and the stratum corneum was washed once again with ice cold hexane to exclude residuals lipids in the fraction. The solvent was removed by SpeedVac.
The stratum corneum pieces were weighed in order to determine their dry weight. 50 mg of dried stratum corneum was dissolved in 1M NaOH and mixed thoroughly for 1 hr. Stratum corneum was treated with or without the test items for 2 hr. L-acetylcysteine containing free thiol moieties served as positive control. To isolate the free thiol moieties from the mixture, the samples or blank (50 μl) were incubated with equal volume of TCA (trichloroacetic acid) for 5 min. Then, the tubes were centrifuge for 15 min at 10,000 rpm at room temperature. The pellet was evaluated. Ellman's reagent stock solution (3 mM) was prepared in methanol. […] The 96-well plates were incubated for 5 min at RT, mixed, and the optical absorbance was recorded at 412 nm. A standard calibration curve was read simultaneously without the TCA precipitation step.

HaCaT keratinocyte cells [2] = assay: Caspase-3 apoptosis assay; type: cell-based, human; settings: HaCaT keratinocytes cell line, 72 hours
Experimental: Apoptosis was measured by the caspase-3 assay. Results are shown as percent of control. Staurosporine (100 nM) served as positive control. Mean±SEM; n=3. *p<0.05 for reduction from untreated control. HaCaT cells were seeded in a 96 well plates in concentration of 0.3×10^6 cells/mL in […] in complete growth medium (DMEM supplemented with 10% FBS and antibiotics). […] The assay was carried out in triplicates. Untreated cells were used as negative controls. At the end of each incubation period, cell viability and the extent of apoptosis were measured by MTT and Caspase-3 assays, respectively. A proper blank control was subtracted from the measurements.

HaCaT keratinocyte cells [3] = assay: Cell cycle analysis by flow cytometry (FACS); type: cell-based, human; settings: HaCaT cells synchronized by serum deprivation, 24 hr incubation
Experimental: HaCaT keratinocyte cells were synchronized by serum deprivation for 24 hr. […] Cell cycle was measured by FACS analysis. […] Staurosporine (100 nM) served as positive control. Mean±SEM; n=3. *p<0.05 for reduction from untreated control.
BrdU and FACS analyses were performed in one selected concentration. Two time points (24 hr and 48 hr) were chosen for the flow cytometry and one for the BrdU assay. In order to induce culture synchronization, serum-free medium was used prior of BrdU/FACS analyses in the 24 hr treatment groups.
The effect of selenium methionine on cell cycle was analyzed by flow cytometry (FACS). At the end of the treatment, the cells were harvested by trypsinization and counted. Approximately 1.3×10^6 cells were transferred to a new tube, centrifuged for 5 min at 1500 rpm (2-8° C.), and suspended in 0.5 ml of ice cold PBS. Then, the cells were fixed by adding 2.5 ml of 70% ethanol (2-8° C.) in a dropwise manner. The cells were stored at 2-8° C. for 48 hr at this stage. After 30 min of incubation, the samples were washed 3×1 mL PBS and 0.5 mL of ribonuclease stock solution (0.2 mg/mL supplemented with 0.1% (v/v) Triton x-100 in PBS) were added to the cell pellet for 1 hr at rt. This step was performed to ensure only DNA, not RNA, was stained. 0.5 mL of propidium iodide (PI, 100 μg/ml) was added to the samples still suspended in the ribonuclease stock solution. […]

Row | Molecule | effect on proliferation of the cells (DNA replication, BrdU) (HaCaT keratinocyte cells [1]) | reduction of keratinocyte turnover or proliferation rate as determined by MTT cell viability tests (HaCaT cells) | reduction of proliferation of keratocytes (BrdU, DNA replication) (HaCaT keratinocyte cells [1]) | cell viability (MTT) (HaCaT cells; positive control 0.1%) | elevation in thiol degradation assay releasing free SH moieties (Human stratum corneum) | activation of caspase-3 apoptosis marker (apoptotic effect) (HaCaT keratinocyte cells [2]) | effect on cell cycle (cell arrest properties) (HaCaT keratinocyte cells [3])
1 | CN[C@@H]1C[C@H]2O[C@@](C)([C@@H]1OC)n1c3ccccc3c3c4c(c5c6ccccc6n2c5c31)C(=O)NC4 [staurosporine] | dose-dependent reduction | – | – | – | – | – | –
2 | selenium cysteine | – | significant dose-dependent effect | more than 90% | – | – | – | –
3 | CCCCCCCCCCCCOS(=O)(=O)[O-].[Na+] [SDS] | – | – | – | significantly decreased cell viability | – | – | –
4 | selenium methionine | – | significant dose-dependent effect | up to 60% | – | up to 35% | significant increase | elongation of the S phase in the cell cycle and lowered M phase
5 | O=C(O)c1ccccc1O [SA, Salicylic acid] | does not affect the proliferation | no dose dependent effect | – | – | caused elevation | significant increase | no cell arrest properties
